In brackets after ≈: the same amount, converted by molar mass. Like-named read-outs stand apart in the source and are kept apart here.
Key:
[1] = tested on: Respiratory Syncytial Virus; assay: Respiratory syncytial virus antiviral assay (CPE inhibition, neutral red uptake); format: cell-based, Respiratory syncytial virus strain Utah 89; conditions: human respiratory syncytial virus
EBV = EBV assay: superinfection of Raji or Daudi cells with P3HR-1, immunofluorescence for EA and VCA; format: cell-based, Epstein-Barr Virus (P3HR-1)
Source text: There are two prototypes of infectious EBV. One is exemplified by the virus derived from supernatant fluids of the P3HR-1cell line. This cell line produces nontransforming virus that causes the production of early antigen (EA) after primary infection or superinfection of B cell lines. The other prototype is exemplified by the B-95-8 virus. This virus immortalized cord blood lymphocytes and induced tumors in marmosets. […] The virus used in our assays is P3HR-1.
Ramos is an exceptional B cell line derived from Burkitt's lymphoma tumor but containing no detectable EBV genome copies and is EBNA negative. Ramos/AW was obtained by in vitro infection of Ramos with the P3HR-1 virus and contains one resident EBV genome copy/cell. Raji is a Burkitt's lymphoma cell line containing 60 EBV genomes/cell, and will be the primary cell used for screening antiviral activity against EBV EA expression. Daudi is a low level producer that contains 152 EBV genome copies/cell. It spontaneously expresses EBV EA in 0.25%-0.5% of the cells. It will be used in follow-up studies to confirm activity. These cell lines respond to superinfection by EBV by expressing EA(D), EA(R), and VCA. All cell lines are maintained in RPMI-1640 medium supplemented by 10% FCS, L-glutamine and 100 μg/mL gentamicin. The cultures are fed twice weekly and the cell concentration adjusted to 3×10^5/mL. The cells are kept at 37° C. in a humidified atmosphere with 5% CO2.
Cells are infected with the P3HR-1 strain of EBV and the drugs to be tested are added after adsorption (45 minutes at 37° C.) and washing of the cell cultures. The cultures are incubated for two days in complete medium to allow viral gene expression. Following the 48 hr incubation period, the number of cells of each sample are counted and smears made. Monoclonal antibodies to the different EA components and VCA are then added to the cells incubated and washed. This is followed by a fluorescein conjugated rabbit anti-mouse Ig antibody; and the number of fluorescence positive cells in the smears are counted. The total number of cells in the cultures positive for EA or VCA are then calculated and compared.

HIV = assay: Anti-HIV evaluation by MTT-tetrazolium method (inhibition of CPE in MT-2 / CEM-SS cells); format: cell-based; conditions: Human immunodeficiency virus 1, CEM-SS; read-out: Antiviral Activities (EC50) HIV
Experimental: This example illustrates the anti-HIV activity of various coumarin and chromene compounds which were evaluated using the published MTT-tetrazolium methods^8. Retroviral agents AZT and DDC were used as controls for comparison purposes.
The cells used for screening were the MT-2 and the human T4-lymphoblastoid cell line, CEM-SS, and were grown in RPMI 1640 medium supplemented with 10% fetal (v/v) heat-inactivated fetal calf serum and also containing 100 units/mL penicillin, 100 μg/mL streptomycin, 25 mM HEPES and 20 μg/mL gentamicin. The medium used for dilution of drugs and maintenance of cultures during the assay was the same as above. The HTLV-IIIB and HTLV-RF were propagated in CEM-SS. The appropriate amounts of the pure compounds for anti-HIV evaluations were dissolved in DMSO, then diluted in medium to the desired initial concentration. The concentrations (M medium) employed were […]; 0.001 μM; 0.0032 μM; 0.01 μM; 0.032 μM; 0.1 μM; 0.32 μM; 1 μM; 3.2 μM; 10 μM; 32 μM; and 100 μM. Each dilution was added to plates in the amount of 100 μL/well. Drugs were tested in triplicate wells per dilution with infected cells while in duplicate wells per dilution with uninfected cells for evaluation of cytotoxicity. On day 6 (CEM-SS cells) and day 7 (MT-2 cells) post-infection, the viable cells were measured with a tetrazolium salt, MTT (5 mg/mL), added to the test plates. A solution of 20% SDS in 0.001 N HCl is used to dissolve the MTT formazan produced. The optical density value was a function of the amount of formazan produced which was proportional to the number of viable cells. The percent inhibition of CPE per drug concentration was measured as a test over control and expressed in percent (T/C %).

HBV = HBV replication in cultures of 2.2.15 cells (HBV DNA blot hybridization); format: cell-based
Experimental: Test compounds are then added daily for a continuous 9 day period. Culture medium (changed daily during the treatment period) is collected and stored for analysis of extracellular (virion) HBV DNA after 0, 3, 6, and 9 days of treatment. Treated cells are lysed 24 hours following day 9 of treatment for the analysis of intracellular HBV genomic forms. HBV DVA is then analyzed in a quantitative and qualitative manner for overall levels of HBV DNA (both extracellular and intracellular DNA) and the relative rate of HBV replication (intracellular DNA).
Both intracellular and extracellular HBV DNA are analyzed in order to (i) allow for verification of compound efficacy and (ii) provide possible data on the target site in the HBV replication pathway for the compound from examination of the pattern of viral replicative forms. The culture medium is changed daily during the treatment period to (i) prevent the buildup of potentially toxic metabolites derived from test compounds and (ii) provide an analysis of HBV virion production during discrete 24-hour intervals which enables a quantitative comparison of any effect on virion production.
The analysis of HBV DNA is performed using blot hybridization techniques (Southern and slot blot) and [^32P]-labeled HBV-specific probes. HBV DNA levels are measured by comparison to known amounts of HBV DNA standards applied to every nitrocellulose membrane (gel or slot blot). An AMBIS beta scanner, which measures the radioactive decay of the hybridized probes directly from the nitrocellulose membranes, is used for the quantitative analysis. Standard curves, generated by multiple analyses, are used to correlate CPM measurements made by the beta scanner with relative levels of target HBV DNA. The levels of HBV virion DNA released into the culture medium are analyzed by a slot blot hybridization procedure. HBV DNA levels are then compared to those at Day 0 to determine the effect of drug treatment.
The levels of RI and episomal monomers are used as an indicator of the relative level of HBV replication. Integrated HBV DNA is used to normalize the relative amounts of DNA in each lane because the levels of this class of HBV DNA would be expected to remain constant on a per cell basis. […] Inhibition of HBV DNA replication is indicated by the loss of RI without changes in the level of integrated HBV DNA.

VZV = VZV plaque reduction assay in human foreskin fibroblast cells; format: cell-based, Varicella Zoster Virus (Ellen strain)
Experimental: [table] Two days prior to use, HFF cells are plated into six-well plates and incubated at 37° C. with 5% CO2 and 90% humidity. On the date of assay, the drug is made up at twice the desired concentration in 2×MEM and then serially diluted 1:5 in 2×MEM using six concentrations of drug. […] The media is then aspirated from the wells and 0.2 mL of virus is added to each well in duplicate with 0.2 mL of media being added to drug toxicity wells. The plates are then incubated for one hour with shaking every fifteen minutes. […] The drug agarose mixture is applied to each well in 2 mL volume and the plates then incubated for three days, after which the cells were stained with a 1.5% solution of neutral red. At the end of 4-6 hr incubation period, the stain is aspirated, and plaques counted using a stereomicroscope at 10× magnification. The procedure is essentially the same as for the HSV plaque assay described above with two exceptions: 1. After addition of the drug, the plates are incubated for ten days. 2.

Rhinovirus = Rhinovirus antiviral assay (CPE inhibition, neutral red uptake, virus yield); format: cell-based; conditions: Enterovirus
Measles Virus = assay: Measles virus antiviral assay (CPE inhibition, neutral red uptake, virus yield); format: cell-based, Measles virus strain CC; conditions: Measles morbillivirus
[2] = CPE inhibition, read-out: Antiviral Activities (EC50) Respiratory Syncitial (CPE)
[3] = neutral red (NR) dye uptake, read-out: Antiviral Activities (EC50) Respiratory Syncitial (NR)
[4] = human gammaherpesvirus 4; read-out: Antiviral Activities (EC50) EBV
[5] = Hepatitis B virus; read-out: Antiviral Activities (EC50) HBV
[6] = Human alphaherpesvirus 3, Fibroblast; read-out: Antiviral Activities (EC50) VZV
[7] = CPE inhibition, read-out: Antiviral Activities (EC50) Rhinovirus (CPE)
[8] = neutral red (NR) dye uptake, read-out: Antiviral Activities (EC50) Rhinovirus (NR)
[9] = CPE inhibition, read-out: Antiviral Activities (EC50) Measles (CPE)
[10] = neutral red (NR) dye uptake, read-out: Antiviral Activities (EC50) Measles (NR)
[11] = readout not stated, read-out: Antiviral Activities (EC50) Respiratory Syncitial
[12] = readout not stated, read-out: Antiviral Activities (EC50) Rhinovirus
[13] = read-out: Antiviral Activities (EC50) Measles (virus yield)

Structure (SMILES)	EC50 [1, 2] [µg/mL]	EC50 [1, 3] [µg/mL]	EC50 (EBV; [4]) [µg/mL]	EC50 (HIV) [µg/mL]	EC50 (HBV; [5]) [µg/mL]	EC50 (VZV; [6]) [µg/mL]	EC50 (Rhinovirus; [7]) [µg/mL]	EC50 (Rhinovirus; [8]) [µg/mL]	EC50 (Measles Virus; [9]) [µg/mL]	EC50 (Measles Virus; [10]) [µg/mL]	EC50 [1, 11] [µg/mL]	EC50 (Rhinovirus; [12]) [µg/mL]	EC50 (HBV; Hepatitis B virus, read-out: Antiviral Activities (EC50) HBV) [µg/mL]	EC50 (Measles Virus; [13]) [µg/mL]	EC50 (EBV; human gammaherpesvirus 4, read-out: Antiviral Activities (EC50) EBV) [µg/mL]	EC50 (VZV; Human alphaherpesvirus 3, Fibroblast, read-out: Antiviral Activities (EC50) VZV) [µg/mL]
CCCc1cc(=O)oc2c3c(c4c(c12)OC(C)(C)[C@H](O)[C@H]4O)O[C@H](C)[C@@H](C)[C@@H]3O	> 100	100 (≈ 247 µM)	> 50	> 2.5	> 4	> 100	20 (≈ 49.4 µM)	50 (≈ 124 µM)	10 (≈ 24.7 µM)	100 (≈ 247 µM)	–	–	–	–	–	–
CCCc1cc(=O)oc2cc(OCC(C)(C)C(=O)O)c3c(c12)OC(C)(C)C=C3	–	–	–	> 8	2.6 (≈ 6.73 µM)	–	10 (≈ 25.9 µM)	1 (≈ 2.59 µM)	> 100	> 100	> 100	–	–	–	–	–
CCCc1cc(=O)oc2cc(OC(=O)C(C)(C)C)cc(OC(=O)C(C)(C)C)c12	–	–	3.7 (≈ 9.52 µM)	2.2 (≈ 5.66 µM)	> 4	5.6 (≈ 14.4 µM)	–	–	2 (≈ 5.15 µM)	3 (≈ 7.72 µM)	> 100	20 (≈ 51.5 µM)	–	–	–	–
CCCc1cc(=O)oc2cc(OCC(C)(C)C(=O)OC)c3c(c12)OC(C)(C)C=C3	–	–	0.08 (≈ 0.2 µM)	2 (≈ 4.99 µM)	> 4	> 20	–	–	40 (≈ 99.9 µM)	30 (≈ 74.9 µM)	> 100	25 (≈ 62.4 µM)	–	–	–	–
CCCc1cc(=O)oc2cc(OS(=O)(=O)c3ccc(C)cc3)cc(OS(=O)(=O)c3ccc(C)cc3)c12	2 (≈ 3.78 µM)	1 (≈ 1.89 µM)	> 50	> 3	–	> 20	2 (≈ 3.78 µM)	1 (≈ 1.89 µM)	3 (≈ 5.68 µM)	1 (≈ 1.89 µM)	–	–	> 5	3 (≈ 5.68 µM)	–	–
CCCc1cc(=O)oc2cc(OC(=O)C(C)(C)C)c3c(c12)OC(C)(C)C=C3	–	–	0.39 (≈ 1.05 µM)	> 7	> 10	> 100	–	–	0.2 (≈ 0.54 µM)	0.6 (≈ 1.62 µM)	–	–	–	–	–	–
CCCc1cc(=O)oc2cc(O[C@H](C)[C@@H](C)CO[Si](C)(C)C(C)(C)C)c3c(c12)OC(C)(C)C=C3	–	–	–	7.2 (≈ 14.8 µM)	–	–	–	–	–	–	–	–	–	–	–	–
CCCc1cc(=O)oc2c3c(c4c(c12)OC(C)(C)[C@H](O)[C@H]4OC(=O)c1cccc(Cl)c1)O[C@H](C)[C@@H](C)[C@@H]3O	–	–	–	8.4 (≈ 15.5 µM)	–	–	–	–	–	–	–	–	–	–	–	–
CCCc1cc(=O)oc2cc(OC(C)CCO[Si](C)(C)C(C)(C)C)c3c(c12)OC(C)(C)C=C3 (stereo not shown)	–	–	–	> 18	–	–	–	–	–	–	–	–	–	–	–	–
CCCc1cc(=O)oc2cc(OC(=O)CC)c3c(c12)OC(C)(C)C=C3	–	–	–	> 2	> 10	> 4	–	–	0.4 (≈ 1.17 µM)	0.3 (≈ 0.876 µM)	1 (≈ 2.92 µM)	–	–	0.32 (≈ 0.935 µM)	–	–
CCCc1cc(=O)oc2cc(O[C@H](C)[C@@H](C)CO)c3c(c12)OC(C)(C)C=C3	–	–	–	> 2	–	–	–	–	–	–	–	–	–	–	–	–
CCCc1cc(=O)oc2c(C(=O)C(C)(O)C(C)O)c(O)c3c(c12)OC(C)(C)C=C3 (stereo not shown)	50 (≈ 124 µM)	40 (≈ 99.4 µM)	–	> 24	> 4	19.9 (≈ 49.4 µM)	0.5 (≈ 1.24 µM)	1 (≈ 2.48 µM)	20 (≈ 49.7 µM)	40 (≈ 99.4 µM)	–	–	–	–	–	–
CCCc1cc(=O)oc2c(C(=O)CC)c(O)c3c(c12)OC(C)(C)C=C3	20 (≈ 58.4 µM)	40 (≈ 117 µM)	27 (≈ 78.9 µM)	> 68	> 3	16.1 (≈ 47 µM)	–	–	20 (≈ 58.4 µM)	> 100	–	–	–	–	–	–
CCCc1cc(=O)oc2cc(O)cc(O)c12	–	–	–	–	> 2.2	–	–	–	> 100	> 100	6 (≈ 27.2 µM)	27 (≈ 123 µM)	–	–	> 50	5.9 (≈ 26.8 µM)
CCCc1cc(=O)oc2cc(OC(=O)C(C)(C)C)cc(O)c12 [drawing 26]	–	–	1.1 (≈ 3.61 µM)	–	> 3	83 (≈ 273 µM)	–	–	–	–	–	–	–	–	–	–
CCCc1cc(=O)oc2cc(OC(C)CCO)c3c(c12)OC(C)(C)C=C3 (stereo not shown)	–	–	–	1.5 (≈ 4.18 µM)	–	–	–	–	–	–	–	–	–	–	–	–
CCCc1cc(=O)oc2c(C(=O)CC)c(O)cc(O)c12	2 (≈ 7.24 µM)	4 (≈ 14.5 µM)	0.33 (≈ 1.19 µM)	–	> 3	> 0.8	30 (≈ 109 µM)	28 (≈ 101 µM)	10 (≈ 36.2 µM)	> 100	–	–	–	–	–	–
CCCc1cc(=O)oc2cc(O)c(C(=O)CC)c(O)c12	–	–	8.5 (≈ 30.8 µM)	> 5	1 (≈ 3.62 µM)	> 4	2 (≈ 7.24 µM)	5 (≈ 18.1 µM)	3 (≈ 10.9 µM)	0.4 (≈ 1.45 µM)	–	–	–	–	–	–
CCCc1cc(=O)oc2cc(O)c3c(c12)OC(C)(C)C=C3	–	–	> 50	–	> 10	89 (≈ 311 µM)	–	–	0.5 (≈ 1.75 µM)	0.6 (≈ 2.1 µM)	1 (≈ 3.49 µM)	–	–	–	–	–

— US20030176494A1, “Novel coumarin and chromene compounds and methods of preparation and use thereof for treating or preventing viral infections” (priority 2001, published 2003)
